How the values were obtained:
[1] = biological target: T1, Ephrin type-B receptor 3 (Homo sapiens) (UniProt P54753); experiment: Selectivity interaction (KinomeScan (DiscoverX)) EUB0000666a EPHB3; conditions: at 10 µM
T1 sequence (whole entry): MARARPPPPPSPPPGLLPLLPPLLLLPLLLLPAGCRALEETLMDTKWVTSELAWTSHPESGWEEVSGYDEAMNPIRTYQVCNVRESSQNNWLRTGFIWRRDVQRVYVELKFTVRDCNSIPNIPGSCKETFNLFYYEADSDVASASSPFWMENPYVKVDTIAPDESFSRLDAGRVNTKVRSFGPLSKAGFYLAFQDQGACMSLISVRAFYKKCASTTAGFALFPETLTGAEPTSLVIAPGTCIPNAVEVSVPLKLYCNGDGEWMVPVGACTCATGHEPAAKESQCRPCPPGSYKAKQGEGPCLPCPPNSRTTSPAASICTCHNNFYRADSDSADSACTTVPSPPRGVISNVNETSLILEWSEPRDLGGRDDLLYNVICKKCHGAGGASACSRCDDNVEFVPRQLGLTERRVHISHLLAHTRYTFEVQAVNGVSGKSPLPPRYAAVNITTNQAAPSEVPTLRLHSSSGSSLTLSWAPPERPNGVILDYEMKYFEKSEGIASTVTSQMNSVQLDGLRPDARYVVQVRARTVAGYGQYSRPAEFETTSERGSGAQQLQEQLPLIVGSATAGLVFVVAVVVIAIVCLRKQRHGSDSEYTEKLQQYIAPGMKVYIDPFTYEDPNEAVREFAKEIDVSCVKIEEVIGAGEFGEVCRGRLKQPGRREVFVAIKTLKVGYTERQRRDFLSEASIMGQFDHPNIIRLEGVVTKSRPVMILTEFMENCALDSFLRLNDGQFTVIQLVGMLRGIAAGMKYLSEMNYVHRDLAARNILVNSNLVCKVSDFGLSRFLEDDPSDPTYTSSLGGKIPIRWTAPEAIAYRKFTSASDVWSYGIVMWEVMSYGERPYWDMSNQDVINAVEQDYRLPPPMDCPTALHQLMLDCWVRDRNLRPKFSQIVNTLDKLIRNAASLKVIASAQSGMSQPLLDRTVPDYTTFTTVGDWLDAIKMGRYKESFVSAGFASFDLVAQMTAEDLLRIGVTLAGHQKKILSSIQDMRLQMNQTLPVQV

[2] = system: Epidermal growth factor receptor (Homo sapiens), P00533 [UNDEFINED MUTATION]; experiment: Selectivity interaction (KinomeScan (DiscoverX)) EUB0001079a EGFR; conditions: at 1 µM
[3] = system: Mast/stem cell growth factor receptor Kit (Homo sapiens), P10721 [V559D]; conditions: at 10 µM
[4] = biological target: eIF-2-alpha kinase GCN2 (Homo sapiens) (UniProt Q9P2K8); experiment: Selectivity interaction (ActivX KiNativ screen (kinase selectivity in THP-1 cell lysates)) EUB0000639a EIF2AK4; format: subcellular; conditions: lysate
[5] = biological target: Ribosomal protein S6 kinase alpha-2 (Homo sapiens) (UniProt Q15349); experiment: Selectivity interaction (Kinase panel (Invitrogen)) EUB0000639a RPS6KA2; conditions: at 200 nM
[6] = biological target: Cyclin-dependent kinase 9 (Homo sapiens, UniProt P50750); conditions: at 10 µM
[7] = biological target: Tyrosine-protein kinase Blk (Homo sapiens) (UniProt P51451); conditions: at 10 µM
[8] = biological target: T2, Atypical kinase COQ8B, mitochondrial (Homo sapiens) (UniProt Q96D53); experiment: Selectivity interaction (KinomeScan (DiscoverX)) EUB0000092b ADCK4; conditions: at 10 µM
T2 sequence (whole entry): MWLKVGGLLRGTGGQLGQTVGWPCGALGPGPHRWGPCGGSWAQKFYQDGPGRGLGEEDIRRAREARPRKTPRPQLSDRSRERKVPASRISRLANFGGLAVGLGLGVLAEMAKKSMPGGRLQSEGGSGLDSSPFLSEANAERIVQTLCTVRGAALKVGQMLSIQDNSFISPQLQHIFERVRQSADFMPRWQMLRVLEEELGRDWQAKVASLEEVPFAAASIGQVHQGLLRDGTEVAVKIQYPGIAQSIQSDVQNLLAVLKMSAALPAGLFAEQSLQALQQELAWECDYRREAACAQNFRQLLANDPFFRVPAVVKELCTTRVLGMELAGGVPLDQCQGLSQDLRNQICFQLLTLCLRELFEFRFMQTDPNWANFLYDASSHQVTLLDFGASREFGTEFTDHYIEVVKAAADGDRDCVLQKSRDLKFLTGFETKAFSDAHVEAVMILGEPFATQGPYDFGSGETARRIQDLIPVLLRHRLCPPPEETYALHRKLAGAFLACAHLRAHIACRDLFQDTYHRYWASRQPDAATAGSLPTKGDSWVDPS

[9] = biological target: Interleukin-1 receptor-associated kinase 1 (Homo sapiens) (UniProt P51617); experiment: Selectivity interaction (KinomeScan (DiscoverX)) EUB0000045b IRAK1
[10] = biological target: LIM domain kinase 1 (Homo sapiens) (UniProt P53667); experiment: Selectivity interaction (Upstate Kinase Profiler service (Millipore)) EUB0000056c LIMK1; conditions: at 1 µM
[11] = biological target: Acetylcholine receptor subunit alpha (Homo sapiens, UniProt P02708); experiment: Selectivity interaction (Panel of kinases, GPCRs, ion channels and transporters (enzymatic assay)) EUB0000266bCl CHRNA1
[12] = biological target: Serine/threonine-protein kinase 26 (Homo sapiens, UniProt Q9P289); experiment: Selectivity interaction (SelectScreen profiling (Invitrogen)) EUB0000607a STK26; conditions: at 2 µM
Chain of Serine/threonine-protein kinase 26 (Q9P289 2-416 limits assumed): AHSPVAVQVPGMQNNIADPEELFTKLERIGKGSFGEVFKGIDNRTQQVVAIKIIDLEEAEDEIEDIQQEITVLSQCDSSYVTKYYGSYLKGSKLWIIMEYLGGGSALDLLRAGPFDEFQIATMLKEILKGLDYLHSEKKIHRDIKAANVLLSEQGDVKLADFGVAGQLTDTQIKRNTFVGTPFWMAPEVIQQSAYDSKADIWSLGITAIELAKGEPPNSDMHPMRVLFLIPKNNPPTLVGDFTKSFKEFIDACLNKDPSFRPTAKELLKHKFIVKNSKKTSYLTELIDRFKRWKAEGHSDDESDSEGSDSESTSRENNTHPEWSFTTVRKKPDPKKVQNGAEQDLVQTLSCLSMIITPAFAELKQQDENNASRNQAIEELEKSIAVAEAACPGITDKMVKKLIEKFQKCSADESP

Chain of eIF-2-alpha kinase GCN2 (Homo sapiens) (Q9P2K8 whole entry): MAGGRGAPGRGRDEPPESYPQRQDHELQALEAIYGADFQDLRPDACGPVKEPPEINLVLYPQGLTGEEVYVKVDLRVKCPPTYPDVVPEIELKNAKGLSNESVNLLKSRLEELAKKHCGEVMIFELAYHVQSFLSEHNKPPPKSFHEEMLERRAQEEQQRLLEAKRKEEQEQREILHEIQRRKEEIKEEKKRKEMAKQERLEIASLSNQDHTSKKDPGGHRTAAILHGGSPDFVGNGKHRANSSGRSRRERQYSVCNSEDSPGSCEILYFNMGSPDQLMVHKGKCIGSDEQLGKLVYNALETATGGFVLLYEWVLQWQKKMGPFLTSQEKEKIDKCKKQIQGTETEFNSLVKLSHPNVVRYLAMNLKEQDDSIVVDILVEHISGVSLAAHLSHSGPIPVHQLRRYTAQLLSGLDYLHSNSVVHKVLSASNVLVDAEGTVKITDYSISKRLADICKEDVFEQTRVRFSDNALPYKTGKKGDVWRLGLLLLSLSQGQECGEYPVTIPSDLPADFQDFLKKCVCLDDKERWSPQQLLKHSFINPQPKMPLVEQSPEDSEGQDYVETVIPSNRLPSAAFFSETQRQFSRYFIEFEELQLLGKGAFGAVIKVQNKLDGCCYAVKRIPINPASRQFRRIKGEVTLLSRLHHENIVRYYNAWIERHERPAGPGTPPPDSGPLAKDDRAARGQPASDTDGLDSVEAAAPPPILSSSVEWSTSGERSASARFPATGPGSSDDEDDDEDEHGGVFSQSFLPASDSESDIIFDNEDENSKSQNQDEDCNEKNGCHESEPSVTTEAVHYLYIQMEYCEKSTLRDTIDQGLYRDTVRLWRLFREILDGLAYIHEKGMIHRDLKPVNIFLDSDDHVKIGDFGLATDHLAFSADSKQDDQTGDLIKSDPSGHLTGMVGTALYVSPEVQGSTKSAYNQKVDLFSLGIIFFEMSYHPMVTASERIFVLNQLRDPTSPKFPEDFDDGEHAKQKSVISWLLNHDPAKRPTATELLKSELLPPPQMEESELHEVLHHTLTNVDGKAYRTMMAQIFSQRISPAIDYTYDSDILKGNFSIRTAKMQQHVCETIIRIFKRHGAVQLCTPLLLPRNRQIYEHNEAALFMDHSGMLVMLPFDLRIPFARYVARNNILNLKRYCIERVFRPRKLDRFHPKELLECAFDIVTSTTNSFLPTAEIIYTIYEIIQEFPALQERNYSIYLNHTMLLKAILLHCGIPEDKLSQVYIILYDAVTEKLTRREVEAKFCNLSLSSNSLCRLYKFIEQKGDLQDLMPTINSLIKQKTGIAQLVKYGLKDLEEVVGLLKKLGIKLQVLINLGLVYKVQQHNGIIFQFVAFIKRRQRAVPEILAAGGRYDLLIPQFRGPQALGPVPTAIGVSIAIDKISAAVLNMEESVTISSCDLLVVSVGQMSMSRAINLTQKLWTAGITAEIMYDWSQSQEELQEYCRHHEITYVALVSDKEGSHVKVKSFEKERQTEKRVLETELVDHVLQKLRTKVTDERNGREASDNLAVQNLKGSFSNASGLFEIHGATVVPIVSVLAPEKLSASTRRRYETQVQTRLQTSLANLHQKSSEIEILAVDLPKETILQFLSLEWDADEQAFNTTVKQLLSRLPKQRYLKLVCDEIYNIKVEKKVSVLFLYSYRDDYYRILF
Chain of Interleukin-1 receptor-associated kinase 1 (Homo sapiens) (P51617 whole entry, looked up, the tested form may be a part): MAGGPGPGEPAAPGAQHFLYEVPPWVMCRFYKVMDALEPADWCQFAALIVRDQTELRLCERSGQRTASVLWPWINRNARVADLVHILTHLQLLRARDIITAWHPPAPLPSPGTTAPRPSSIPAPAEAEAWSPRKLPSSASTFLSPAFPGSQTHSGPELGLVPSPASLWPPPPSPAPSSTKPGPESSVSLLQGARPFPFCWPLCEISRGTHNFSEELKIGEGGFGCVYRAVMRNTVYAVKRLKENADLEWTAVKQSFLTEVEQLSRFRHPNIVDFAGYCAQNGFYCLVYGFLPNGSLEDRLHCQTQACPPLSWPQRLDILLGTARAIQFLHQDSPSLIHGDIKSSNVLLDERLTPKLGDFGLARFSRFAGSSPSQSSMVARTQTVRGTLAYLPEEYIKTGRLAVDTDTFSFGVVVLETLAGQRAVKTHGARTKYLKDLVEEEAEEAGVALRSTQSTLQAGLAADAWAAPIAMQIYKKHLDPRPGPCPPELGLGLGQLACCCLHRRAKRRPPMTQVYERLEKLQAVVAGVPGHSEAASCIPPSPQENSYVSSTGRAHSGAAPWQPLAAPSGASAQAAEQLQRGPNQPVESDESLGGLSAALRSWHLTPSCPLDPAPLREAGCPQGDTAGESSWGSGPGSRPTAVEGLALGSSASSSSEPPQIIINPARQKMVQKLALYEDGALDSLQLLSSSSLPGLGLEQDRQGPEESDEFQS
Chain of Acetylcholine receptor subunit alpha (P02708 whole entry): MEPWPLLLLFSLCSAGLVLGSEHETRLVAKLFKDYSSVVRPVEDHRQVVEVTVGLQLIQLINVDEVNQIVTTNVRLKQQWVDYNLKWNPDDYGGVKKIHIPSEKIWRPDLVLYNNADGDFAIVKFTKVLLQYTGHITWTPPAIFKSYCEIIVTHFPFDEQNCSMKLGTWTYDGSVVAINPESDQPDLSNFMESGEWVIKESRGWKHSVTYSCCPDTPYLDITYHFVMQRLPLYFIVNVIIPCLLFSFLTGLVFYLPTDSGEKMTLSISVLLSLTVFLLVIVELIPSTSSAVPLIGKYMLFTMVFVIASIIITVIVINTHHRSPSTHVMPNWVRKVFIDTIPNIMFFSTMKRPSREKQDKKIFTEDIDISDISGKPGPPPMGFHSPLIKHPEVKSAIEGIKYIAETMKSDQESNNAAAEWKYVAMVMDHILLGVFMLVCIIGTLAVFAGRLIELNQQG
Chain of Cyclin-dependent kinase 9 (P50750 whole entry): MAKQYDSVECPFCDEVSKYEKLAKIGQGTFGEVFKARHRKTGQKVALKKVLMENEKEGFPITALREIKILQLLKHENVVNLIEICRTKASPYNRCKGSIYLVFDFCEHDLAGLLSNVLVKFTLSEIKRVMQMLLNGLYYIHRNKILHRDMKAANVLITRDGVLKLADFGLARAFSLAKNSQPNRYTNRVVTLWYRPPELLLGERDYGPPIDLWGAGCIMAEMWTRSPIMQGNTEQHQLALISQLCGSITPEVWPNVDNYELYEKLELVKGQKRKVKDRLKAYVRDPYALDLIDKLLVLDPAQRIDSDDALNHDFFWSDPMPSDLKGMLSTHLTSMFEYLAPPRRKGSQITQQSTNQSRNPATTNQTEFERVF
Chain of Ribosomal protein S6 kinase alpha-2 (Homo sapiens) (Q15349 whole entry): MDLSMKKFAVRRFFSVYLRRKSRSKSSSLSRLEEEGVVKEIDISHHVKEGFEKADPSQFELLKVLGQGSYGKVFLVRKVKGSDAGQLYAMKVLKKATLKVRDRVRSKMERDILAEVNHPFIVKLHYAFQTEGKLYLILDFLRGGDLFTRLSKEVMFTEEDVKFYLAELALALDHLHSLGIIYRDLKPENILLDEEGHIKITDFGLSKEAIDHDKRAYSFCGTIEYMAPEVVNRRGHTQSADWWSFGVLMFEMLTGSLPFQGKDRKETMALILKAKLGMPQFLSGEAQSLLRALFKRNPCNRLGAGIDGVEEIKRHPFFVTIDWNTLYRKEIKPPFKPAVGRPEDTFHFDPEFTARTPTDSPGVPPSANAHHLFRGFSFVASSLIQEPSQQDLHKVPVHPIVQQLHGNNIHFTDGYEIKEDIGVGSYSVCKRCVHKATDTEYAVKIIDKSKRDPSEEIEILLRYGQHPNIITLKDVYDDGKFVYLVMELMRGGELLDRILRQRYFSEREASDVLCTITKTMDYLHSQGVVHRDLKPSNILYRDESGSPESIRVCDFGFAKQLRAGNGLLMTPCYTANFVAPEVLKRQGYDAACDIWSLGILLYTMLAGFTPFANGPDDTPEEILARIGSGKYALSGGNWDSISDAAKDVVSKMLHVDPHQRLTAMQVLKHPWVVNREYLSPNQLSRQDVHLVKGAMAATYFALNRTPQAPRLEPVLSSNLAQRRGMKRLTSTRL
Chain of LIM domain kinase 1 (Homo sapiens) (P53667 whole entry, looked up, the tested form may be a part): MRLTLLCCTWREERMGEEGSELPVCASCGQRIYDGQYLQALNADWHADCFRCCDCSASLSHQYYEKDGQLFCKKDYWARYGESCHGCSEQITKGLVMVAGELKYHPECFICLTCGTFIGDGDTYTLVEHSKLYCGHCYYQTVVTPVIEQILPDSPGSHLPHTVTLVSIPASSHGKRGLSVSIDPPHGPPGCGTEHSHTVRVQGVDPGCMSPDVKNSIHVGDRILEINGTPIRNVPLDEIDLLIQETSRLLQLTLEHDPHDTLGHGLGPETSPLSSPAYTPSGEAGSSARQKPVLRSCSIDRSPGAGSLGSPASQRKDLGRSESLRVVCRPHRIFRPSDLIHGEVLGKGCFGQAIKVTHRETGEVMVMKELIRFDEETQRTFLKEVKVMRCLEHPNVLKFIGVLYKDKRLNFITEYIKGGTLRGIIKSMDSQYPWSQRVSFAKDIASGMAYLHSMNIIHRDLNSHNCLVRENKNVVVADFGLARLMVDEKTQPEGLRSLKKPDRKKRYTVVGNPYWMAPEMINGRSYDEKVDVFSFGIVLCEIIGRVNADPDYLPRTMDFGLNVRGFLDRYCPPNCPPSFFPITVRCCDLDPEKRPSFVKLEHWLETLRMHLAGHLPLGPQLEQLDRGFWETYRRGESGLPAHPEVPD

Molecule `O=C(NOC[C@H](O)CO)c1ccc(F)c(F)c1Nc1ccc(I)cc1F` has a % of control [1] of 89%.

Molecule `Nc1cnc(N2CCc3cc(S(=O)(=O)Nc4c(F)cc(Cl)cc4F)cc(N4CCCC4=O)c32)nc1` [TP-020n] has a % of control [2] of 63%.

`CCN(CC)CCCCNc1ncc2cc(-c3cc(OC)cc(OC)c3)c(NC(=O)NC(C)(C)C)nc2n1` was tested, and the % of control [3] was 100%.

`CC[C@@H]1[C@H](F)C(=O)N[C@@H]1COc1nccc2cc(C(N)=O)c(OC)cc12` [ZIMLOVISERTIB] showed a % of inhibition ([4]; at 0.01 µM) of -4.6%, a % of inhibition ([4]; at 0.04 µM) of -11.3% and a % of inhibition ([4]; at 0.2 µM) of -14.4%. For the same molecule, the % of inhibition ([4]; at 1 µM) was 13.9%, the % of inhibition ([4]; at 5 µM) was 12.4% and the % of inhibition [5] was -0.472%.

In the case of `COCC(=O)NC/C=C/c1ccc2ncnc(Nc3ccc(Oc4ccc(C)nc4)c(C)c3)c2c1` [CP-724714], the % of control [6] is reported as 100% and the % of control [7] is reported as 62%.

`CCC(=O)N1CCN(c2ccc(-n3c(=O)ccc4cnc5ccc(-c6cnc7ccccc7c6)cc5c43)cc2C(F)(F)F)CC1` gave a % of control [8] of 15%.

With `C=CC(=O)Nc1cc(-n2c(=O)ccc3cnc4ccc(-c5ccc(NS(C)(=O)=O)cc5)cc4c32)ccc1C` the % of control ([9]; at 1 µM) was 72% and the % of control ([9]; at 10 µM) was 60%.

`Cc1ccc(-c2ccc3c(ccc4sc5c(c43)NC[C@@H](C)NC5=O)n2)cn1` showed a % of inhibition [10] of 4%.

With `CCn1c(-c2nc3cc(C(=O)N4CCCC(N)C4)ccc3n2C)cc2ccccc21` (configuration not stated) the pXC50 [11] was < 4.3 M.

Molecule `CNC(=O)Nc1ccc(-c2nc(N3CC4CCC(C3)O4)c3cnn(C4CCC5(CC4)OCCO5)c3n2)cc1` has a % of inhibition [12] of 7%.
